# From patent US9586994B2, “CD44V6-derived peptides for treating breast cancer” (KARLSRUHER INSTITUT FÜR TECHNOLOGIE, priority 2012, dated 2017)
# Tests used:
# L3.6pl cells [1] = test: Regression of already established metastases, L3.6pl orthotopic mouse model; format: in vivo; conditions: nude mice, orthotopic L3.6pl, treatment from week 3 for three weeks; human v6 peptide or rat control peptide 20 μg i.p.
# Experimental: In order to examine the regression of metastases (either BSp73ASs6 or L3.6pl) were implanted as described above. Tumor growth was allowed for three weeks. At that time all animals had developed metastases in the control group. Animals were injected i.p. with 20 μg (L3.6pl orthotopic mouse model: human v6 peptide or rat control peptide) or i.v. with 200 μg (rat syngeneic model: rat v6 peptide or mouse control peptide) of peptides three times per week. Animals were killed 23 days after the start of the peptide treatment.
# The specific binding of the CD44v6 peptides to specific areas of the lungs in the rat system and of the liver in the human model raises the question whether these peptides might have an effect on already established metastases. In the experiments described in FIGS. 17 and 19 the peptides were applied early after injection of the tumor cells and repressed completely the establishment of metastases. In order to measure the effect of the CD44v6 peptide on already established metastases, other experimental settings were used. BSp73ASs6 cells were injected subcutaneously into syngeneic rats and L3.6pl cells orthotopically into male nude mice and allowed to grow for 3 weeks. […]
# L3.6pl cells [2] = test: Human orthotopic pancreatic cancer model, L3.6pl cells in nude mice, treatment from day 7; format: in vivo, mouse
# Experimental: In the case of the human orthotopic model, L3.6pl pancreatic carcinoma cells (passage 24-26) were suspended in Hank's balanced salt solution (Invitrogen, Karlsruhe, Germany) after trypsinization. The cells were injected orthotopically in the pancreas of male nude mice as described (Bruns C J et al. (1999) Neoplasia 1(1):50-62). Two groups of 15 mice each were injected i.p. 7 days later with either the human v6 peptide respectively rat control peptide (20 μg). For all experiments described and depicted herein either the rat 14mer control peptide or the human 14mer peptide were used. All experiments were then repeated with the rat 5mer control peptide or the human 5mer peptide (N-R-W-H-E, SEQ ID NO: 2). […] The injection was repeated three times per week for 21 days. Two days after the last treatment the animals were killed.
# 7 μm thick paraffin sections were deparaffinized and rehydrated. For P-Met staining antigen unmasking was achieved by boiling the slides in 1 mM EDTA pH 8.0 followed by incubation for 15 minutes at a sub-boiling temperature, for CD31 staining the sections were treated with Proteinase K (8 μg/ml) for […] at 37° C. For immunofluorescence staining of P-Met, unspecific binding was blocked with 5% goat serum (DAKO, Glostrup, Denmark) (diluted in 1×PBS/0.3% Triton X-100) for 60 minutes. In the case of immunohistochemistry, endogenous peroxidases were at first blocked with 3% H2O2 in PBS followed by incubation with biotin blocking system (Dako, Glostrup, Denmark) and then unspecific binding was inhibited by incubation with 5% FCS in PBS was used for blocking. The sections were incubated with the P-Met antibody (D26, dilution 1:50 in 1×PBS/1% BSA/0.3% Triton X-100), Met antibody (C-28, dilution 1:50), GFP antibody (sc-101525, dilution 1:50) or CD31 antibody (5 μg/ml) over night or VFF18 (5 μg/ml) o/n at 4° C. After washing in PBS the sections were incubated with Alexa Fluor R 546 goat anti-rabbit (in case of immunofluorescence P-Met and Met staining, dilution 1:500) or a biotinylated secondary antibody (for immunohistochemical stainings rabbit anti-rat antibody for VFF18 and CD31, goat anti-rabbit for P-Met, cleaved Caspase-3 and cleaved Caspase-8 and rabbit anti-mouse for GFP, dilution 1:500) for 45 minutes. For DAB staining the sections were treated with a streptavidin-peroxidase conjugate (Dako, Glostrup, Denmark) and developed with DAB (3,3′-diaminobenzidine) substrate system (3,3′-diaminobenzidine; Biozol, Eching, Germany) For immunofluorescence DAPI was used for nuclear staining.
# To test the effect of the peptide on tumor growth and metastasis formation the L3.6pl cells were orthotopically injected into the pancreas of immunosuppressed mice (NCI-nu). […] The primary tumor expresses a high amount of CD44v6 (FIG. 19B). […] Indeed, human HGF in a concentration of 3375 pg/ml was detected in the supernatant (see Material and Methods) after 5 days of culture (data not shown).
# CD44v6 [3] = test: HGF-induced activation of Met and ERK in L3.6pl cells (Western blot); format: cell-based, human; conditions: peptide before induction with 10 ng/ml HGF
# Experimental: Serum-starved cells (24 hours) were induced with the growth factor HGF (10 ng/mL) at 37° C. for 5 minutes. Where indicated, the cells were treated with peptides (100 ng/ml) prior to induction at 37° C. for 10 minutes (100 ng/mL CD44v6 peptide or control peptide). Following the induction with HGF, cells were washed with ice-cold phosphate-buffered saline (PBS). To detect activated Met and ERK, cells were lysed in sodium dodecyl sulfate (SDS)—sample buffer containing 100 mM dithiothreitol (DTT), boiled and subjected to western blot analysis using antibodies against phospho-Met and ERK. The loading controls were performed on the same blot after stripping (62.5 mM Tris, pH 6.8, 2% SDS, 0.8% DTT) by probing with the Met respectively Erk antibody. Blots were stained using the enhanced chemiluminescence system (Thermo Fisher Scientific, Schwerte, Germany). Bands in western blot analysis were quantified with the program Image J (National Institutes of Health).
# To expand the studies to human pancreatic tumors, the highly metastatic human pancreatic carcinoma cells L3.6pl (Bruns, et al. Neoplasia (1999), 1(1):50-62) were investigated. These cells originate from the […] cells that have been passaged several times in the liver and the pancreas, a step that rendered them more and more metastatic. It was confirmed that Met is dependent on CD44v6 for its activation and signaling in these cells (FIG. 19A). The L3.6pl cells were treated with HGF in the presence or absence of a human v6 peptide of SEQ ID NO: 2 or SEQ ID NO:6 and Met activation and downstream signaling to ERK was measured. Phosphorylation of both Met and ERK was inhibited by the human v6 peptide. Treatment with a corresponding rat v6 peptide (ctrl peptide, SEQ ID NO: 10 or 11) had no influence on receptor activation and signal transduction (FIG. 19A).
# The contribution of CD44v6 to Met signaling in the human epithelial pancreatic cancer cells L3.6pl (derived from Colo 357), the cervix carcinoma cells HeLa and the colon cancer cells HT29 were analysed using the CD44v6 peptide (v6 14mer; v6 5mer tested as well, data not shown).
# CD44v6 [4] = biological target: T1, CD44v6 (Homo sapiens, UniProt P16070); test: Peptide blocking of EGF/TGFα-induced Erk phosphorylation in MCF7 cells (Western blot); format: cell-based; conditions: peptide 100 ng/ml
# T1 construct: endogenous in cells; host or cells: MCF7; MCF10A
# Experimental: 3×10^5 were seeded per well of a 6-well plate and serum-starved for 24 hours. Afterwards the medium inside of each well was reduced to 1 ml and the respective peptide (v6 (both peptides of SEQ ID No.: 2 and 6 were tested), or ctrl peptide) was added at a concentration of 100 ng/ml. The cells then were incubated together with the peptide at 37° C. for 5 mins. Ligand concentration for all peptide blocking experiments was 20 ng/ml.
# To assay protein expression via Western blot cells were washed 1× with PBS and afterwards lysed in 2×Laemmli sample buffer (160 mM Tris-HCl pH 6.8, 4% SDS, 16% glycerol, 0.1M DTT, 0.01% bromphenol blue). The sample was sheared through a 26 gauge needle. In succession the lysates were boiled for 5 mins at 99° C. in order to denature the proteins in the sample and then spun down at 10 000 rmp for 1 min Eventually the samples were loaded onto an SDS-PAGE gel.
# To test whether CD44v6 acts as a co-receptor in MCF7 or MCF10A cells, a peptide blocking experiment using peptides of SEQ ID NO: 6 was conducted. The cells were serum-starved for 24 h and then pre-incubated with a v6 peptide or an unspecific control peptide. Then, the cells were induced with EGF or HGF as a control. As a read-out for ErbB-activation, the phosphorylation of the Erk-kinase was used.
# T1 sequence (P16070 21-742): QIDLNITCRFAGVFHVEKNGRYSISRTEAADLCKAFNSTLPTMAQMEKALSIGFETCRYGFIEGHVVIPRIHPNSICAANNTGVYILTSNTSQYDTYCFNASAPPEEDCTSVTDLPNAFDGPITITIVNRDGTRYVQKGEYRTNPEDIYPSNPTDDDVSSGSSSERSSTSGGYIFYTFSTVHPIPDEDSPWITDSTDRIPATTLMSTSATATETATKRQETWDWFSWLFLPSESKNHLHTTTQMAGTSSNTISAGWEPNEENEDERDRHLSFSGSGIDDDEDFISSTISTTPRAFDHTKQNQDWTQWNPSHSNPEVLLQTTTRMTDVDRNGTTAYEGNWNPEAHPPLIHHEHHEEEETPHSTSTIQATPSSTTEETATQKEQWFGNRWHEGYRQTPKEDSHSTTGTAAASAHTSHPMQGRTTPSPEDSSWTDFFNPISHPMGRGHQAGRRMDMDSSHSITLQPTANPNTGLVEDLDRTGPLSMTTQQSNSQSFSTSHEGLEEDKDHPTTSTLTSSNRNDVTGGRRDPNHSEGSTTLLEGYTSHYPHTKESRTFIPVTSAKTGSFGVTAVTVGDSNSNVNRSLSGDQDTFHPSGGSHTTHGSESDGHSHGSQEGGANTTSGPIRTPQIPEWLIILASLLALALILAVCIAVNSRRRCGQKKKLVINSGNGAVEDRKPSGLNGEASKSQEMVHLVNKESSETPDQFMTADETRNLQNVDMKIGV
substance,measurement,setting,value
"NRWHE [SEQ ID NO: 2, human CD44v6 5mer peptide]",Presence of metastases (liver) after treatment of established metastases,L3.6pl cells [1],eliminate already established metastases
same,"Outcome of all experiments repeated with 5mer peptides, compared with 14mer","L3.6pl cells [2]; L3.6pl orthotopic model, 5mer instead of 14mer",same results as for the 14mer peptides
same,Metastasis formation (liver),"L3.6pl cells [2]; nude mice, orthotopic L3.6pl, 20 μg i.p. three times per week",capable of inhibiting metastasis
same,HGF-induced phosphorylation/activation of ERK,CD44v6 [3],inhibited
same,HGF-induced phosphorylation/activation of Met,CD44v6 [3],inhibited
same,EGF-induced activation of the ErbB receptors (Erk phosphorylation),"CD44v6 [4]; MCF7, serum-starved, EGF 20 ng/ml",blocking of Erk phosphorylation
same,Erk phosphorylation upon TGFα induction,"CD44v6 [4]; MCF7, TGFα 20 ng/ml",not upon TGFα induction
